These results are taken from patent publication US7129271B2, “Compounds for pest control and methods for their use” (The United States of America as represented by the …, priority 2000, dated 2006).

Values after ≈ are worked out from the molar mass of the structure shown. Where two headings read alike, the source gives them in different places.

The test system of assay [1] is I. scapularis nymphs. Nature of the assay: Tick bioassay, modified disposable pipette method, treated vials (Example 9). The format is in vivo, Ixodes scapularis. The following applies: for LC90: read-out: LC90. As for the experimental part: Tick Colonies. […] There was no known pesticide used at this location. Ticks were maintained at 21° C., 90% RH, and received a 16:8 h (light:dark) cycle as described in […]. Med. […] Tick and Flea Bioassays. […] A control treated with acetone only was run with each series. Tick and flea susceptibility was evaluated using a modified disposable pipette method. See, Barnard, D. R., et al., J. Econ. […] Three to 4 holes were made in the plastic cap to allow for air exchange. Nymphal ticks and adult fleas were then placed directly into the vials using forceps. Vials containing ticks or fleas were placed in desiccators for 24 h at 21° C. and 90% RH. […] For each time point, if ticks were incapable of movement, maintaining normal posture, leg coordination, ability to right themselves, or any signs of life, they were considered moribund or dead.

In assay [2] the test system is X. cheopis adults. Nature of the assay: Flea bioassay, treated vials (Example 9). The format is in vivo. The following applies: for LC90: read-out: LC90. On the procedure: Flea Colonies. Adult X. cheopis fleas (1–3 wk old) were obtained from a colony founded more than eight years ago using adults received from Tom Schwan, Rocky Mountain Laboratories, Hamilton, Mont. The area from which these original adult fleas were obtained, and the resulting colony, have no known histories of pesticide exposure.
Tick and Flea Bioassays. Concentrations of the compounds were prepared by 2-fold serial dilutions of a 0.5% (wt:vol) solution of the extracts in acetone. […] A control treated with acetone only was run with each series. Tick and flea susceptibility was evaluated using a modified disposable pipette method. See, Barnard, D. R., et al., J. Econ. Entomol.
(§1) The inner surface of 2-dram friction cap vials were treated with the compound/acetone solution, or acetone only as a control, and left to air-dry overnight. Three to 4 holes were made in the plastic cap to allow for air exchange. Nymphal ticks and adult fleas were then placed directly into the vials using forceps. Vials containing ticks or fleas were placed in desiccators for 24 h at 21° C. and 90% RH. Morbidity and mortality was recorded at 1, 2, 4, 8, and 24 h after initial exposure.

For assay [3], the system named is Ae. aegypti adults. Put plainly: Mosquito bottle bioassay (Example 9). The class given is in vivo. As for the experimental part: Mosquito Colonies. Aedes aegypti adult mosquitoes were obtained from an existing colony at the Centers for Disease Control and Prevention (CDC), Division of Vector-Borne Infectious Diseases (DVBID), Fort Collins, Colo. This colony has been maintained for over fifteen years with no known history of exposure to pesticides. Mosquitoes were reared at 28° C., 85% RH, and a 14:10 h (light:dark) cycle. Larvae were grown in de-ionized water and fed ground liver powder solution ad libitum. Fourth instars were removed and placed in emergence cages, and adults were fed a 2% sucrose solution until assayed. Adults were exposed to test products at 4–7 d after emergence.
(§2) Mosquit Bioassay. Adult mosquitoes were tested using the bottle bioassay method of Brogden, W. G., and McAllister, J. C., J. Am. Mosq. Control Assoc. 14:159–64 (1998), with minor modifications. Natural product extracts were two-fold serially diluted for a total of 8 concentrations ranging from 0.002% to 0.25% in 1.5 ml of acetone. Individual dilutions were added to 250 ml Wheaton glass bottles and capped. Bottles were manipulated to evenly coat all inner surfaces. The caps were removed and bottles were allowed to air-dry overnight. Once bottles were completely dry, 10–50 adult mosquitoes were aspirated into the bottles. Mosquitoes were held in the bottles for 24 h at 23° C. and 85% RH. Morbidity and mortality were recorded at 15, 30, 45, and 60 min and 24 hour intervals. One bottle for each replicate was treated with acetone only and served as a control. The dose-mortality data was evaluated with probit analysis, using the LdP Line software, to determine LC50 and LC90 values.

Assay [4] concerns Ixodes scapularis nymphs. Put plainly: Residual activity, treated vials aged before loading (Example 9). The class given is in vivo. As for the experimental part:
(§3) Tick and Flea Bioassays. Concentrations of the compounds were prepared by 2-fold serial dilutions of a 0.5% (wt:vol) solution of the extracts in acetone. The approximate toxicity of individual compounds was determined with a total of 8 doses ranging from 0.002% to 0.25%. […] A control treated with acetone only was run with each series. Tick and flea susceptibility was evaluated using a modified disposable pipette method. See, Barnard, D. R., et al., J. Econ. Entomol. 74:466–69 (1981).
as §1, with “Groups of 10 nymphal I. scapularis and X. cheopis fleas were used in all tests, resulting in a total of 5,240 nymphs and 4,860 fleas exposed to the compounds. The” for “The”

The test system of assay [5] is Xenopsylla cheopis adults. Described as above. The class given is in vivo. As for the experimental part: as §3
as §1, with “Groups of 10 nymphal I. scapularis and X. cheopis fleas were used in all tests, resulting in a total of 5,240 nymphs and 4,860 fleas exposed to the compounds. The” for “The”

Assay [6] relates to Aedes aegypti adults. Put plainly: Residual activity, treated bottles aged before loading (Example 9). The class given is in vivo. On the procedure:
as §2

The subject of assay [7] is ticks, fleas, and mosquitoes. Put plainly: Residual activity, overall statements for ticks, fleas and mosquitoes (Example 9). The settings on record: 1 to 4 weeks after treatment.
Where [8] appears, read: 24 h exposure, 95% CI in parentheses.
The mark [9] stands for this setting: residual activity at 1 week after treatment.
Where [10] appears, read: residual activity at 2 weeks after treatment.
Setting [11] is: residual activity at 4 weeks after treatment.
Setting [12] is: Ixodes scapularis, 24 h, 24 h exposure, 95% CI in parentheses.
Where [13] appears, read: Xenopsylla cheopis, 24 h, 24 h exposure, 95% CI in parentheses, read-out: LC50.
The mark [14] stands for this setting: Xenopsylla cheopis, 24 h, 24 h exposure, 95% CI in parentheses.
Where [15] appears, read: Aedes aegypti, 24 h, 24 h exposure, 95% CI in parentheses, read-out: LC50.
[16] abbreviates: Aedes aegypti, 24 h, 24 h exposure, 95% CI in parentheses, read-out: LC90 (the source's name).

As for `Cc1ccc(C(C)C)cc1O` [Compound 4, Carvacrol], the LC50 in assay [1] (Ixodes scapularis, 24 h) stood at 68 µg/mL (≈ 453 µM); in assay [2] (Xenopsylla cheopis, 24 h) it was 59 µg/mL (≈ 393 µM); in assay [3] (Aedes aegypti, 24 h) it was 51 µg/mL (≈ 339 µM). The LC90 in assay [1] (Ixodes scapularis, 24 h) was 140 µg/mL (≈ 932 µM); in assay [2] (Xenopsylla cheopis, 24 h) it was 140 µg/mL (≈ 932 µM). Moreover, the EC90 in assay [3] (Aedes aegypti, 24 h, read-out: LC90) amounted to 140 µg/mL (≈ 932 µM).

`C=C(C)[C@@H]1CCC2=CC(=O)C[C@@H](C)[C@]2(C)C1` [Compound 8, Nootkatone]: the LC50 is 0.0061 (0.005–0.0072) percent concentration, wt:vol in assay [1] (setting [8]); 0.0029 (0.002–0.0038) percent concentration, wt:vol in assay [2] (setting [8]); 0.0029 percent concentration, wt:vol in assay [2] (24 h exposure, 95% CI in parentheses, listed as compound 8); 0.025 percent concentration, wt:vol in assay [4] (setting [9]); 0.019 (0.014–0.024) percent concentration, wt:vol in assay [4] (setting [10]); 0.25 percent concentration, wt:vol in assay [4] (setting [11]). In addition, the LC50 is listed as 0.02 (0.016–0.026) percent concentration, wt:vol in assay [5] (setting [9]); 0.018 (0.013–0.024) percent concentration, wt:vol in assay [5] (setting [10]); 0.035 (0.026–0.051) percent concentration, wt:vol in assay [5] (setting [11]); 0.0065 percent concentration, wt:vol in assay [6] (setting [9]); 0.0067 (0.0058– percent concentration, wt:vol in assay [6] (setting [10]); 0.02 percent concentration, wt:vol in assay [6] (setting [11]). Moreover, the LC90 is 0.071 percent concentration, wt:vol in assay [4] (setting [9]); 0.056 (0.04–0.094) percent concentration, wt:vol in assay [4] (setting [10]); 0.71 percent concentration, wt:vol in assay [4] (setting [11]); 0.053 (0.04–0.082) percent concentration, wt:vol in assay [5] (setting [9]); 0.081 (0.054–0.156) percent concentration, wt:vol in assay [5] (setting [10]); 0.161 (0.098–0.387) percent concentration, wt:vol in assay [5] (setting [11]). Moreover, the LC90 in assay [6] (setting [9]) is on record as 0.014 percent concentration, wt:vol; in assay [6] (setting [10]), 0.012 (0.01–0.015) percent concentration, wt:vol; in assay [6] (setting [11]) it was 0.29 percent concentration, wt:vol. Moreover, the “residual activity (in words)” value in assay [7] is listed as “considerable biological activity”.

As to `C=C(C)[C@@H]1CCC2=CC(=O)C[C@@H](C)[C@]2(C)C1` [Compound 9, Nootkatone], the LC50 in assay [1] (setting [8]) was 0.0033 (0.0027–0.004) percent concentration, wt:vol; in assay [2] (setting [8]), 0.0066 (0.0046–0.0086) percent concentration, wt:vol; in assay [3] (setting [8]) it was 0.0075 percent concentration, wt:vol; in assay [4] (setting [9]), 0.0084 (0.005–0.013) percent concentration, wt:vol; in assay [4] (setting [10]), 0.0089 (0.0068–0.012) percent concentration, wt:vol; in assay [5] (setting [9]), 0.043 percent concentration, wt:vol. For the same molecule, the LC50 is 0.027 percent concentration, wt:vol in assay [5] (setting [10]); 0.0089 (0.0077–0.01) percent concentration, wt:vol in assay [6] (setting [9]); 0.0042 (0.0036– percent concentration, wt:vol in assay [6] (setting [10]); 0.018 percent concentration, wt:vol in assay [6] (setting [11]). The LC90 in assay [4] (setting [9]) is 0.08 (0.045–0.22) percent concentration, wt:vol; in assay [4] (setting [10]) it was 0.027 (0.02–0.045) percent concentration, wt:vol; in assay [5] (setting [9]) it was 0.259 percent concentration, wt:vol; in assay [5] (setting [10]), 0.085 percent concentration, wt:vol; in assay [5] (setting [11]) it was 0.111 (0.08–0.193) percent concentration, wt:vol; in assay [6] (setting [9]), 0.018 (0.015–0.023) percent concentration, wt:vol. For the same molecule, the LC90 in assay [6] (setting [10]) is recorded as 0.0088 (0.0074–0.011) percent concentration, wt:vol; in assay [6] (setting [11]), 0.036 percent concentration, wt:vol. Also, in assay [7], the “residual activity (in words)” value is listed as “considerable biological activity”.

Turning to `C=C(C=O)C1CCC2=CCC[C@@H](C)[C@]2(C)C1` (some centres unmarked) [Compound 15, valencene-13-aldehyde], the LC50 in assay [1] (Ixodes scapularis, 24 h) is 59 µg/mL (≈ 270 µM); in assay [2] (setting [13]), 49 µg/mL (≈ 224 µM); in assay [3] (setting [15]), 24 µg/mL (≈ 110 µM); in assay [4] (setting [9]), 0.026 (0.02–0.033) percent concentration, wt:vol; in assay [5] (setting [9]), 0.059 percent concentration, wt:vol; in assay [6] (setting [9]), 0.011 (0.0095–0.013) percent concentration, wt:vol. Further, in assay [6] (setting [10]), the LC50 is given as 0.014 (0.0074–0.025) percent concentration, wt:vol. Besides, the LC90 is 170 µg/mL (≈ 779 µM) in assay [1] (setting [12]); 85 µg/mL (≈ 389 µM) in assay [2] (setting [14]); 0.072 (0.052–0.121) percent concentration, wt:vol in assay [4] (setting [9]); 0.148 percent concentration, wt:vol in assay [5] (setting [9]); 0.027 (0.022–0.037) percent concentration, wt:vol in assay [6] (setting [9]); 0.037 (0.029–0.127) percent concentration, wt:vol in assay [6] (setting [10]). Moreover, the EC90 in assay [3] (setting [16]) worked out at 34 µg/mL (≈ 156 µM). The “residual activity (in words)” value in assay [7] is listed as “considerable biological activity”.

As to `C=C(C)C1CCC23OC2C(=O)C[C@@H](C)[C@]3(C)C1` (some centres unmarked) [Compound 17, nootkatone-1,10-epoxide], the LC50 in assay [1] (Ixodes scapularis, 24 h) was 200 µg/mL (≈ 853 µM); in assay [2] (setting [13]), 170 µg/mL (≈ 725 µM); in assay [3] (setting [15]), 2230 µg/mL (≈ 9520 µM). For the same molecule, the LC90 was 550 µg/mL (≈ 2350 µM) in assay [1] (setting [12]) and 590 µg/mL (≈ 2520 µM) in assay [2] (setting [14]). Moreover, in assay [3] (setting [16]), the EC90 turned out to be 20000 µg/mL (≈ 85400 µM).

As for `C[C@@H]1CC(=O)C2OC23CCC(C2(C)CO2)C[C@@]13C` (some centres unmarked) [Compound 18, nootkatone-1,10-11,12-diepoxide], the LC50 in assay [1] (Ixodes scapularis, 24 h) came to 610 µg/mL (≈ 2440 µM); in assay [2] (setting [13]), 640 µg/mL (≈ 2560 µM); in assay [3] (setting [15]) it was 590 µg/mL (≈ 2360 µM). Moreover, the figures for the LC90 in assay [1] (setting [12]) and in assay [2] (setting [14]) were 2450 µg/mL (≈ 9790 µM) and 4840 µg/mL (≈ 19300 µM), respectively. In assay [3] (setting [16]), the EC90 was 1140 µg/mL (≈ 4550 µM).
